Results: US20230277573A1, “OLIGOSACCHARIDE COMPOSITIONS AND METHODS OF USE” (DSM Nutritional Products, LLC, priority 2020, published 2023)

Tested on: western diet (WD)-induced obese low density lipoprotein receptor knock-out (ldlr−/−) mouse model
Test: Western diet (WD)-induced obese ldlr−/− mouse model: blood, liver, aorta and body weight readouts
Assay type: in vivo
Conditions: WD-fed ldlr−/− mice, 16 wk, fenofibrate 100 mg/kg/day
Method: The therapeutic and microbiome effects of the selected oligosaccharide composition were tested in a validated western diet (WD)-induced obese low density lipoprotein receptor knock-out (ldlr^−/−) mouse model, thought to recapitulate a number of metabolic pathologies found in humans, including obesity, hyperglycemia, glucose intolerance, hyperinsulinemia, insulin resistance, severe hypercholesterolemia, hypertriglyceridemia, atherosclerosis, hepatic steatosis and hepatic inflammation. […]
9-11 weeks old male C57BL/6J ldlr^−/− mice were split into one of four treatment groups (12 animals per group, 4 animals per cage)—(1) no treatment (NT), (2) the selected oligosaccharide (as produced by the process described in Example 2), (3) a glucose/galactose-based oligosaccharide composition and (4) fenofibrate—for 16 weeks. […] The body weight for each animal was measured prior to the treatment period and weekly over the treatment period. 4-day food intake for each cage was measured weekly over the treatment period and averaged as food intake per mouse per day. […] For each animal, separate liver sections (˜100 mg each) were collected and frozen for the quantification of hepatic TG and hepatic TC. […] The aortic arch was surface stained with oil red O for the quantification of atherosclerotic plaque surface area.

CC(C)OC(=O)C(C)(C)Oc1ccc(C(=O)c2ccc(Cl)cc2)cc1 [fenofibrate, Fenofibrate]
effect on food intake (OS 7.5% w/w in diet): no effect
body weight gain lowered by, compared to NT: 44%
